Measurements from ChEMBL document CHEMBL1145744, “Anti-HIV agents. Part 55: 3'R,4'R-Di-(O)-(-)-camphanoyl-2',2'-dimethyldihydropyrano[2,3-f]chromone (DCP), a novel anti-HIV agent” (Bioorg Med Chem Lett, 2003).

Legend:
[1] = In vitro therapeutic index was measured from IC50 to EC50 towards HIV-1 replication in cell growth in H9 lymphocytes; format: functional
H9 = assay: Concentration that inhibits HIV-1 replication in cell growth in H9 lymphocytes; format: functional, cell-based; conditions: Homo sapiens

Row | Structure (SMILES) | TI [1] | IC50 (H9) [µM] | EC50 (H9) [µM]
1 | CC1(C)Oc2ccc3ccc(=O)oc3c2[C@@H](OC(=O)C23CCC(C)(C(=O)O2)C3(C)C)[C@H]1OC(=O)C12CCC(C)(C(=O)O1)C2(C)C (stereo partly specified) | 136719 | – | –
2 | Cc1cn([C@H]2C[C@H](N=[N+]=[N-])[C@@H](CO)O2)c(=O)[nH]c1=O [ZIDOVUDINE] | 11200 | 500 | –
3 | CC1(C)Oc2ccc3c(=O)ccoc3c2[C@@H](OC(=O)C23CCC(C)(C(=O)O2)C3(C)C)[C@H]1OC(=O)C12CCC(C)(C(=O)O1)C2(C)C (stereo partly specified) | 14500 | 9.83 | 0.000678
